Drawing on patent US11591331B2, “PARP1 inhibitors and uses thereof” (Xinthera, Inc., priority 2021, dated 2023), this text covers EC50 for 46 compounds.

Common to all, as to assay: Cell growth inhibition assay (CellTiter-Glo cell viability, 7 days)
Common to all, as to assay type: cell-based

Test [1] concerns DLD-1 BRCA2(−/−). The settings on record: Homo sapiens, 168 h, DLD-1 BRCA2(-/-) cells.
Test [2] concerns MDA-MB-436 (mutated BRCA1) cell lines. The settings on record: Homo sapiens, 168 h, MDA-MB-436 cells.
Test [3] concerns DLD-1 parental. The settings on record: Homo sapiens, 168 h, DLD-1 parental cells. From the text:
Example A: Cell Growth Inhibition Assay
The objective of this study is to evaluate the effect of invention compounds on cell proliferation through the cell viability assay in DLD-1 BRCA2(−/−) and parental isogenic pair and MDA-MB-436 (mutated BRCA1) cell lines. The CellTiter-Glo (CTG) based cell viability assay is designed to determine the number of viable cells in the culture because of compound effect, by quantifying ATP, which indicates the presence of metabolically active cells.
DLD-1 BRCA2(−/−) and parental isogenic pair were cultured in RPMI 1640 supplemented with 10% fetal bovine serum (FBS), and MDA-MB-436 cells were cultured in DMEM supplemented with 10% FBS. Both are culture at 37° C. with 5% CO2. Invention compounds were distributed to the 384 well plate (Corning, 3764) using Echo acoustic liquid handler to form a 1:3 serially diluted final concentration with top dose of 10 or 30 μM. The cells were seeded into the plate in the density of 50 cells/well (DLD-1 parental), 200 cells/well (DLD-1 BRCA2−/−), or 500 cells/well (MDA-MB-436). After a short spun, the cells were cultured in a well moisturized incubator at 37° C. with 5% CO2 for 7 days without disturbance. The cell viability was measured by CellTiter Glo 2.0 assay kit (Promega, G9243), and growth inhibition rate was calculated and plotted against final compound concentration, and the data were fitted in Xfit to generate IC50.

Molecules are shown by their SMILES.

The EC50 is the midpoint of the concentration-response curve. On to `CCc1cc2ncc(CN3CCN(c4ccc(C(=O)NC)nc4)[C@@H](C)C3)cc2[nH]c1=O` (racemic) [Example 27], for which the half-maximal effective concentration (EC50) in test [1] was determined as 4.1 nM; in test [2], 1 nM; in test [3], 32 µM.

For the compound `CCc1cc2ncc(CN3CCN(c4ccc(C(=O)NC)nc4)C[C@H]3C)cc2[nH]c1=O` (racemic) [Example 161], the results for the EC50 in test [1] and in test [3] were 22 nM and over 10 µM, respectively.

With `CCc1cc2ncc(CN3CCN(c4ccc(C(=O)NC)nc4)[C@H]4C[C@H]43)cc2[nH]c1=O` (single isomer, unassigned) [Example 3B], the EC50 in test [1] was found to be 3.2 nM; in test [2], 1.5 nM; in test [3], 29 µM.

On to `CCc1cc2ncc(CN3CCN(c4ccc(NC(=O)N5CCOCC5)nc4)CC3)cc2[nH]c1=O` [Example 101], for which the results for the 50% effective concentration (EC50) in test [1] and in test [2] were 17 nM and 9.8 nM, respectively.

Take `CCc1cc2ncc(CN3CCN(c4ccc(NC(=O)OC5COC5)nc4)CC3)cc2[nH]c1=O` [Example 102]: the results for the EC50 in test [1] and in test [2] were 13 nM and 18 nM, respectively.

With `CNC(=O)c1ccc(N2CCN(Cc3cnc4cc(C5CCC5)c(=O)[nH]c4c3)CC2)cn1` [Example 104], the EC50 in test [1] and in test [2] was 1.4 nM each time.

Take `CCc1cc2ncc(CN3CCN(c4cnc(C(=O)NC5CC5)c(F)c4)CC3)cc2[nH]c1=O` [Example 105]: the concentration for a half-maximal effect (EC50) in test [1] worked out at 3.2 nM; in test [2] it was 1.8 nM.

As for `CCc1cc2ncc(CN3CCN(c4ccncn4)CC3)cc2[nH]c1=O` [Example 106], the concentration giving a half-maximal response (EC50) in test [1] is 5.7 nM; in test [2] it was 6.6 nM.

As to `Cc1cc2ncc(CN3CCN(c4cnc(C(=O)NC5CC5)c(F)c4)CC3)cc2[nH]c1=O` [Example 108], the figures for the concentration for a half-maximal effect (EC50) in test [1] and in test [2] were 31 nM and 14 nM, respectively.

Take `[2H]C([2H])(c1cnc2cc(C3CC3)c(=O)[nH]c2c1)N1CCN(c2ccc(C(=O)NC)nc2)CC1` [Example 115]: the figures for the concentration giving a half-maximal response (EC50) in test [1] and in test [2] were 1.9 nM and 1.3 nM, respectively.

`[2H]C([2H])([2H])NC(=O)c1ccc(N2CCN(C([2H])([2H])c3cnc4cc(C5CC5)c(=O)[nH]c4c3)CC2)cn1` [Example 116]: the values for the EC50 in test [1] and in test [2] were 2 nM and 1.2 nM, respectively.

With `[2H]C([2H])(c1cnc2cc(C3CC3)c(=O)[nH]c2c1)N1CCN(c2ccc(C(=O)NC3CC3)nc2)CC1` [Example 117], the 50% effective concentration (EC50) in test [1] turned out to be 2.1 nM; in test [2] it was 1.2 nM.

For `CCc1cc2ncc(CN3CCN(c4ccncc4C#N)CC3)cc2[nH]c1=O` [Example 118], the EC50 in test [1] amounted to 1.3 nM; in test [2], 0.74 nM.

For the compound `[2H]C([2H])([2H])C([2H])([2H])NC(=O)c1ccc(N2CCN(Cc3cnc4cc(C5CC5)c(=O)[nH]c4c3)CC2)cn1` [Example 119], the concentration for a half-maximal effect (EC50) in test [1] is 1.8 nM; in test [2], 0.99 nM.

Turning to `CCc1cc2ncc(CN3CCN(c4ccnnc4C#N)CC3)cc2[nH]c1=O` [Example 120], the EC50 in test [1] is 2.7 nM; in test [2], 1.7 nM.

Consider `[2H]C([2H])([2H])C([2H])([2H])NC(=O)c1ccc(N2CCN(Cc3cnc4cc(C5CC5)c(=O)[nH]c4c3)CC2)n(C)c1=O` [Example 123], for which the results for the concentration giving a half-maximal response (EC50) in test [1] and in test [2] were 15 nM and 5.6 nM, respectively.

Regarding `CCc1cc2ncc(CN3CCN(c4cccnc4C#N)CC3)cc2[nH]c1=O` [Example 128, 3-{4-[(7-ethyl-6-oxo-5H-1,5-naphthyridin-3-yl)methyl]piperazin-1-yl}pyridine-2-carbonitrile], the EC50 was 4.8 nM in test [1] and 4.2 nM in test [2].

As to `N#Cc1ncccc1N1CCN(Cc2cnc3cc(C4CC4)c(=O)[nH]c3c2)CC1` [Example 129], the EC50 turned out to be 15 nM in test [1] and 7 nM in test [2].

As to `CCc1cc2ncc(CN3CCN(c4ccccc4C#N)CC3)cc2[nH]c1=O` [Example 130], the EC50 in test [1] amounted to 3.3 nM; in test [2] it was 2.3 nM.

Take `Cc1cc2ncc(CN3CCN(c4cccnc4C#N)CC3)cc2[nH]c1=O` [Example 131]: the 50% effective concentration (EC50) amounted to 11 nM in test [1] and 6.2 nM in test [2].

In the case of `CCc1cc2ncc(CN3CCN(c4cc(F)ccc4C#N)CC3)cc2[nH]c1=O` [Example 132], the concentration for a half-maximal effect (EC50) stood at 6.7 nM in test [1] and 4.4 nM in test [2].

`CNC(=O)c1ccc(N2CCN(Cc3cnc4c(C)c(C(F)F)c(=O)[nH]c4c3)CC2)cn1` [Example 133]: the values for the EC50 in test [1] and in test [2] were 1 nM and 0.87 nM, respectively.

Consider `CCc1cc2ncc(CN3CCN(c4ccc(C(=O)NC5CC5)c(F)c4)CC3)cc2[nH]c1=O` [Example 134], for which the EC50 in test [1] worked out at 2.4 nM; in test [2] it was 1.4 nM.

As to `C#Cc1cc2ncc(CN3CCN(c4ccc(C(=O)NC)nc4)CC3)cc2[nH]c1=O` [Example 135], the EC50 in test [1] amounted to 15 nM; in test [2] it was 24 nM.

Regarding `Cc1cnc(N2CCN(Cc3cnc4cc(C5CC5)c(=O)[nH]c4c3)CC2)n1C` [Example 136], the EC50 in test [1] amounted to 2 nM; in test [2], 0.93 nM.

For the compound `CCNC(=O)c1ccc(N2CCN(Cc3cnc4cc(C5CC5)c(=O)[nH]c4c3)CC2)cn1` [Example 137], the half-maximal effective concentration (EC50) in test [1] came to 2.1 nM; in test [2], 1.3 nM.

Consider `CNC(=O)c1ccc(N2CCN(Cc3cnc4cc(Cl)c(=O)[nH]c4c3)CC2)cn1` [Example 138, 5-{4-[(7-chloro-6-oxo-5H-1,5-naphthyridin-3-yl)methyl]piperazin-1-yl}-N-methylpyridine-2-carboxamide], for which the 50% effective concentration (EC50) in test [1] stood at 2.7 nM; in test [2], 2.1 nM.

With `CCc1cc2ncc(CN3CCN(c4ccc(C(=O)NC5CC5)nc4C#N)CC3)cc2[nH]c1=O` [Example 139], the EC50 in test [1] was found to be 1.5 nM; in test [2], 0.77 nM.

For the compound `CNC(=O)c1ccc(N2CCN(Cc3cnc4cc(C5CC(F)(F)C5)c(=O)[nH]c4c3)CC2)cn1` [Example 140], the figures for the EC50 in test [1] and in test [2] were 4.3 nM and 5.8 nM, respectively.

As for `CCc1cc2nc(C#N)c(CN3CCN(c4ccc(C(=O)NC)nc4)CC3)cc2[nH]c1=O` [Example 141], the EC50 in test [1] came to 6.4 nM; in test [2], 4.1 nM.

For the compound `O=C(NC1CC1)c1ccc(N2CCN(Cc3cnc4c(c3)[nH]c(=O)c3ccoc34)CC2)cn1` [Example 142], the results for the concentration for a half-maximal effect (EC50) in test [1] and in test [2] were 8.7 nM and 4 nM, respectively.

With `CCc1cc2c(OC)nc(CN3CCN(c4ccc(C(=O)NC)nc4)CC3)cc2[nH]c1=O` [Example 144], the 50% effective concentration (EC50) in test [1] was found to be 4.1 nM; in test [2] it was 2 nM.

Consider `CCc1cc2ncc(CN3CCN(c4ccc(C(=O)NC)c(F)c4C#N)CC3)cc2[nH]c1=O` [Example 145], for which the 50% effective concentration (EC50) in test [1] is 1.9 nM; in test [2] it was 1.1 nM.

For `O=C(NC1CC1)c1ccc(N2CCN(Cc3cnc4cc(Cl)c(=O)[nH]c4c3)CC2)cn1` [Example 147], the concentration giving a half-maximal response (EC50) in test [1] turned out to be 2.9 nM; in test [2] it was 1.3 nM.

On to `CNC(=O)c1ccc(N2CCN(Cc3cnc4c(C)c(Cl)c(=O)[nH]c4c3)CC2)cn1` [Example 148, 5-{4-[(7-chloro-8-methyl-6-oxo-5H-1,5-naphthyridin-3-yl)methyl]piperazin-1-yl}-N-methylpyridine-2-carboxamide], for which the EC50 worked out at 2 nM in test [1] and 1.5 nM in test [2].

Take `CNC(=O)c1ccc(N2CCN(Cc3cnc4cc(N5CCC5)c(=O)[nH]c4c3)CC2)cn1` [Example 149]: the values for the EC50 in test [1] and in test [2] were 17 nM and 9.4 nM, respectively.

For the compound `CCc1cc2ccc(CN3CCN(c4ccc(C(=O)NC)nc4F)CC3)nc2[nH]c1=O` [Example 150], the results for the EC50 in test [1] and in test [2] were 18 nM and 9 nM, respectively.

Take `CNC(=O)c1ccc(N2CCN(Cc3cnc4c(C(F)F)c(C)c(=O)[nH]c4c3)CC2)cn1` [Example 151]: the figures for the concentration giving a half-maximal response (EC50) in test [1] and in test [2] were 16 nM and 28 nM, respectively.

Consider `O=C(NC1CC1)c1ccc(N2CCN(Cc3cnc4cc(Cl)c(=O)[nH]c4c3)CC2)c(F)n1` [Example 152], for which the figures for the EC50 in test [1] and in test [2] were 1.1 nM and 0.51 nM, respectively.

For `CNC(=O)c1ccc(C2=CCN(Cc3cnc4cc(Cl)c(=O)[nH]c4c3)CC2)c(F)n1` [Example 153], the 50% effective concentration (EC50) in test [1] came to 0.95 nM; in test [2], 0.74 nM.

In the case of `Cc1c(Cl)c(=O)[nH]c2cc(CN3CCN(c4ccc(C(=O)NC5CC5)nc4)CC3)cnc12` [Example 154], the values for the EC50 in test [1] and in test [2] were 3 nM and 1.6 nM, respectively.

For `CNC(=O)c1ccc(N2CCN(Cc3cnc4c(C)c(Cl)c(=O)[nH]c4c3)CC2)c(F)n1` [Example 156], the values for the concentration for a half-maximal effect (EC50) in test [1] and in test [2] were 0.68 nM and 0.39 nM, respectively.

As for `N#CC12CC(N3CCN(Cc4cnc5cc(Cl)c(=O)[nH]c5c4)CC3)(C1)C2` [Example 157], the values for the half-maximal effective concentration (EC50) in test [1] and in test [2] were 61 nM and 41 nM, respectively.

For the compound `O=C(NC1CC1)c1ccc(N2CCN(Cc3cnc4cc(C5CC5)c(=O)[nH]c4c3)CC2)c(F)n1` [Example 158], the concentration giving a half-maximal response (EC50) is 2.1 nM in test [1] and 1 nM in test [2].

On to `CNC(=O)c1ccc(N2CCN(Cc3cnc4c(Cl)c(Br)c(=O)[nH]c4c3)CC2)cn1` [Example 159], for which the results for the EC50 in test [1] and in test [2] were 1.7 nM and 0.72 nM, respectively.

On to `CNC(=O)c1ccc(C2=CCN(Cc3cnc4cc(Cl)c(=O)[nH]c4c3)CC2)cn1` [Example 160], for which the 50% effective concentration (EC50) is 2.6 nM in test [1] and 2.1 nM in test [2].
